Laboratory results published in BindingDB's records for patent US12509454 (Ideaya Biosciences, 2025).
pIC50: −log10 of the molar value.

Target: T1, DNA polymerase theta [1-899] (UniProt O75417)
T1 construct: 1-899
Experiment: ATPase activity of Pol theta (1-899) was determined using the assay
Experimental: Pol Theta ATPase activity was determined by measuring the rate of ATP turn over in a NADH oxidation-coupled enzymatic assay. 10-point dilution series of compounds were used in a 384 well format for the inhibition assays. Pol theta (1-899) (10 nM) in assay buffer (20 mM Tris HCl (pH 7.80), 80 mM KCl, 10 mM MgCl2, 1 mM DTT, 0.01% BSA, 0.01% Tween, 5% glycerol) was transferred to the test wells (20 μL), except the low control wells (20 μL of assay buffer was added to the low control wells). The plate was then incubated at room temperature for 15 min. An equal volume (20 μL) of 100 μM ATP, 300 nM dT50 (single-stranded DNA (ssDNA) containing 50 thymine bases), 300 μM NADH, 6 mM PEP, 10 U/mL lactate dehydrogenase and 20 U/mL pyruvate kinase in assay buffer was added to all the test wells. The plate was then centrifuged at 1000 rpm for 1 min. The reaction was monitored for 30 min by measuring absorbance (λ=340 nm) in a Tecan Spark multimode plate reader every minute. The high control (DMSO with enzyme) with low absorbance intensity represents no inhibition of ATPase reaction while the low control (DMSO with buffer) with high absorbance intensity represents full inhibition of ATPase activity. Slope of the reaction progress curves were used to calculate the rate of ATP hydrolysis.

T1 sequence (O75417 1-899): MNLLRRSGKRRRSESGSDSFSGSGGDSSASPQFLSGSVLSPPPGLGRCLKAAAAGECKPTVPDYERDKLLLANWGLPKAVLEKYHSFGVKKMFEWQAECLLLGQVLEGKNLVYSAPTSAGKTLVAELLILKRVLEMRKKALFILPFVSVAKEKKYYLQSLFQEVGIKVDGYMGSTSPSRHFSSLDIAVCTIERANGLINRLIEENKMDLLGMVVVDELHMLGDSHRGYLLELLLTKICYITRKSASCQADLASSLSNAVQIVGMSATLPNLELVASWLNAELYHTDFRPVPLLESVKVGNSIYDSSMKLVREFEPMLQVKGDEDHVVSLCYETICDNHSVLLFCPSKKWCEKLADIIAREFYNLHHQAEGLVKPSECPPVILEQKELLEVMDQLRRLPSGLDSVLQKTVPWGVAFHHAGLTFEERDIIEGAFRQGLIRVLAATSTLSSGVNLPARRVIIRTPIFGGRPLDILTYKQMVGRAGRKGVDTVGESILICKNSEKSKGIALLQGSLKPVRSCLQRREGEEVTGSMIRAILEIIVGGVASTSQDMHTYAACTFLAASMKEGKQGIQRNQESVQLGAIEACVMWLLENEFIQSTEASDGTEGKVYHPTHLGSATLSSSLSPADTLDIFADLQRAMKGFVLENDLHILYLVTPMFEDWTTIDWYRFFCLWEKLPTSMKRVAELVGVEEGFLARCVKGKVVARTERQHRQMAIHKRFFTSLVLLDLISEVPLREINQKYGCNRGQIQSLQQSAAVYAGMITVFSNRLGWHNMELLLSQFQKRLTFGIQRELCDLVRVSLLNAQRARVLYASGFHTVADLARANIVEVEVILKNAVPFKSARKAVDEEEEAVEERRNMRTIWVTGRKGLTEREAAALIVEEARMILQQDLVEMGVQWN

Compound	pIC50
O=C(Nc1nnc(OCc2ccc(Cl)cc2)s1)c1ccncc1N1CCO[C@@H]2C[C@@H]21 (mixture of isomers) [US12509454, Compound 178]	> 6.70
O=C(Nc1nnc(OCc2ccc(Cl)cc2)s1)c1cccnc1N1CCC(O)CC1 [US12509454, Compound 20]	< 6.00
CC(C)(O)C#Cc1ccc(C(=O)Nc2nnc(OCc3ccc(Cl)cc3)s2)c(N2CCOCC2)n1 [US12509454, Compound 29]	< 6.00
N#Cc1cc(-c2c(F)cccc2OC(F)F)c(C(=O)Nc2nnc(OCc3ccc(Cl)cn3)s2)cn1 [US12509454, Compound 193]	> 6.70
